Results published in patent EP0863156A1, “Peptides useful as somatostatin antagonists” (American Cyanamid Company, priority 1997, dated 1998).
Bridge positions count the residues as written; N and C are the ends. Square brackets hold non-standard residues; d marks the D form. Peptide text beside a SMILES is read from it.

Assays:
SSTR2 [1] = molecular target: T1, SSTR2 (Rattus norvegicus, UniProt P30680); assay: Competitive binding of 125I labeled S-14 to membranes of cells expressing transfected SSTR2 (SPA); design: expressed in transfected cells
T1 sequence (P30680 whole entry): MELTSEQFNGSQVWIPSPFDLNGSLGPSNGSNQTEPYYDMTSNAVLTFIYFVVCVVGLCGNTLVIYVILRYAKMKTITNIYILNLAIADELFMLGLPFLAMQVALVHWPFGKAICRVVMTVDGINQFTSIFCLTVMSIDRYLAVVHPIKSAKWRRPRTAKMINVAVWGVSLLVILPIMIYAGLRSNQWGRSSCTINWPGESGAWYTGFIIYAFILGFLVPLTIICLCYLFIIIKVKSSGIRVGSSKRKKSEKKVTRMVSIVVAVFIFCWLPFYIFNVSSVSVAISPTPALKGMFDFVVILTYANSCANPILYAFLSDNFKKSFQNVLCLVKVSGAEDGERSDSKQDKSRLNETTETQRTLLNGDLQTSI
Description: Membrane preparation. Tissue culture cell lines expressing transfected cDNA clones of SSTR2 and SSTR5 are used as a source of plasma membranes which specifically bind ^125I labeled S-14 (Amersham, Arlington Heights, IL). Cells are removed from culture dishes by incubation at 4°C for 5 minutes in PBS containing 1 mM EDTA, spun down (2,000 rpm, 5') and resuspended in 15 mL homogenization buffer (1 mM sodium bicarbonate pH 7.2, 1 mM EDTA, 1 mM EGTA and the following protease inhibitors: leupeptin and aprotenin at 5 µg/mL and benzamidine and bacitracin at 100 µg/mL). Cells are given 20 strokes with a Dounce homogenizer on ice and spun at 2000 rpm for 10 minutes. Membranes are isolated from the supernatant by centrifugation at 17,000 rpm for 30 minutes. The membrane pellet is washed once in 15 mL homogenization buffer and once in storage buffer (25 mM Tris pH 7.4 containing protease inhibitors). […] The membrane pellet is resuspended in storage buffer, measured for protein concentration (BioRad, CA) and stored at -80°C.
Binding assay. […] Bound radioligand is determined by counting in a Microbeta Liquid Scintillation counter (Wallac, Gaithersburg, MD). Binding data is plotted and IC50 and Ki values are calculated for test compounds using Prism software (Graphpad Software Inc., San Diego, CA) and are shown in Table V. Binding is expressed as Ki, µM.

SSTR2 [2] = molecular target: T1, SSTR2; assay: cAMP accumulation in forskolin-stimulated GH4C1/SSTR2 cells (SPA radioimmunoassay); type: cell-based; design: expressed in transfected cells; host or cells: GH4C1 rat pituitary tumor cells; settings: GH4-C1; test peptide 100 µM; percent reversal of SSTR2 activation by SRIF or MK678; 0% = forskolin plus agonist, 100% = forskolin alone; read-out: cAMP Assay Intrinsic activity
Description: This is the basis of a common assay for SRIF agonists and antagonists, whereby SRIF agonists reduce artificially stimulated cAMP levels, and SRIF antagonists reverse the effect of SRIF. […] This increases the response to SRIF and provides a greater dynamic range for the measurement of SRIF antagonist activity.
Stimulation of cells. GH4C1/SSTR2 cells, grown in DMEM with 10% bovine serum, are released from a tissue culture dish by incubation for several minutes at 37° C with PBS containing 0.5 mM EDTA. Cells are washed in induction buffer (PBS containing 100 µM IBMX (an inhibitor of cAMP breakdown) and 2 mM CaCl2) at room temperature, and resuspended at 2 x 10^6/mL in induction buffer. Into each well of a 96-well tray are added 50 µL of a 2 X concentration of stimulants in induction buffer. […] To initiate stimulation of the cells, 50 µL (100,000) cells are added to each well, mixed by shaking 10 seconds on a plate shaker and placed at 37° C for 15 minutes. Stimulation is arrested and cells are lysed by adding 15 µL 0.33 N HCI to each well and incubating the plate for 30 minutes at 37° C. Samples are neutralized by addition of 15 µL 0.25 N NaOH/50 mM Hepes pH 7.4. Baseline cAMP levels are determined in samples with no added forskolin or SRIF, and each treatment is performed in triplicate.
cAMP assay. To measure accumulated cAMP in the samples, a radioimmunoassay is employed. The scintillation proximity assay (SPA, Amersham, Arlington Heights, IL) allows the rapid measurement of ^125I cAMP bound to a specific antibody without separating bound radioligand from free radioligand. Each of the following reagents (15 µL) are added per well in a 96-well tray: supernatants from the cell stimulation; ^125I cAMP; SPA beads conjugated to monkey anti-rabbit IgG antibodies; and rabbit anti-cAMP antibodies. For the standard curve, known amounts of cAMP (0.2 - 12.8 pmol) are added in place of cell supernatants. The 96-well tray is sealed, shaken at room temperature overnight and measured for bound radioligand in a MicroBeta liquid scintillation counter (Wallac, Gaithersburg. MD).
The intrinsic activity of an SRIF antagonist is the percent reversal of the SSTR2 activation by SRIF or MK678, wherein 0% is defined by cAMP levels in samples treated with forskolin plus SRIF or MK678 and 100% is the cAMP level measured after treatment with forskolin alone. Therefore, increased intrinsic activity of a test compound indicates increased antagonist activity of said test compound.
An inverse agonist is a compound that is not only a pure antagonist (i.e. lacking agonist activity), but also blocks the constitutive activity of an unoccupied receptor. One indication of inverse agonist activity is the ability of a SRIF antagonist to increase cAMP levels in the absence of added SRIF.

Ki (SSTR2 [1]): 1950 nM
Emax (SSTR2 [2]): 25.9%
SMILES: CC[C@@H](C)[C@H]1NC(=O)[C@@H](Cc2ccccc2)NC(=O)[C@@H](Cc2c[nH]cn2)NC(=O)[C@@H](N)CSSC[C@@H](C(=O)O)NC(=O)[C@@H](Cc2ccccc2)NC(=O)[C@@H](Cc2c[nH]c3ccccc23)NC(=O)[C@@H](CCCNC(=N)N)NC1=O [Peptide 34, ss C-h-f-i-r-w-f-C] (H-C[dH][dF][dI][dR][dW][dF]C-OH; disulfide 1-8)
